Experimental data as given in EP3381909A1, “NEW TRIAZINE SUBSTANCE FOR USE IN THE TREATMENT OF CANCER, SPECIFICALLY IN THE TREATMENT OF NON-SMALL CELL CANCER, AND PHARMACEUTICAL COMPOSITION COMPRISING SAID SUBSTANCE” (Universite de Nantes, priority 2017, dated 2018).
Where two headings read alike, the source gives them in different places.

Key:
synchronized cells = experiment: Activity kinetics on synchronized cells (data not shown); format: cell-based
Source text: (§1) During the mitosis, cell shape and adhesion are radically changed. Indeed, this phase induces a depolymerization of the microtubules, a loss of the cytoskeleton and consequently a decrease of the adhesion to the support. […] It is thus easy to isolate these cells by a slight agitation of the culture medium in order to remove and suspend the cells. The cells are then recovered by slow centrifugation and replaced in a new culture flask.
It was observed that the cell doubling time of the cell line NSCLC-N6-L16 is about 17 hours and 22-23 hours for A549. Indeed, the molecule A204 act on different genes such as HEF1, the expression of which is variable along the cell cycle.

A549 [1] = experiment: Cytotoxicity determination, continuous drug exposure (MTT colorimetric assay); format: cell-based; conditions: for IC50: Homo sapiens, A549 cell line, MTT, read-out: IC50: Half maximal inhibitory concentration
Experimental: (§2) A549 and NSCLC-N6 cell lines were used for all experiments. They were obtained respectively from an adenocarcinoma and an epidermoid lung cancer. The NSCLC-N6-L16 cell line was derived from a human non-small-cell bronchopulmonary carcinoma (moderately differentiated, classified as T2N0M0). The A549 was obtained from the ATCC collection (reference CCL-185) and is known to have a wild type p53 gene, while NSCLC-N6 has a mutant p53 gene, similar to the in situ tumors.
(§3) Both cell lines were cultured in RPMI-1640 medium with 5% fetal bovine serum, to which were added 100 IU penicillin/ml, 100 µg/mL streptomycin and 2 mM glutamine at 37°C in an air/carbon dioxide (95:5, v/v) atmosphere. The NSCLC-N6-L16 cell line is a model which never exceeded 35 passages in all experiments. Then this model stays very close to the original tumor.
(§4) Experiments were performed in 96-well microtiter plates (10^5 cells/mL for NSCLC-N6-L16 and 2X10^4 cells/mL for A549). Cell growth was estimated by a colorimetric assay based on the conservation of tetrazolium dye (MTT) to a blue formazan product by live mitochondria. Eight repeats were performed for each concentration. Control growth was estimated from 8 determinations. Optical density at 570 nm corresponding to solubilized formazan was read for each well on a Titertek Multiskan MKII.

NSCLC-N6-L16 [2] = experiment: as above; format: cell-based; conditions: Homo sapiens, read-out: IC50: Half maximal inhibitory concentration
Experimental: as §2, §3, §4

A549 [3] = experiment: Continuous drug exposure growth kinetics over 72 h; format: cell-based; conditions: for cell growth (proliferation) versus time: A549, 72 h kinetics
Experimental: as §4
(§5) The kinetics were carried out on the two cell lines NSCLC-N6-L16 and A549 over a time of 72 h. The results are presented in the graphs of figures 1 to 4 representing the cell growth as a function of time. One of the curves represents the cell growth control; the others correspond to the different concentrations tested. The latter are chosen according to the IC50 in order to surround it at best (Table 3).

NSCLC-N6-L16 [4] = experiment: Continuous drug exposure growth kinetics over 72 h; format: cell-based, human; conditions: for "plateau" of cytostatic type, time of treatment after which it is visible: NSCLC-N6-L16, highest doses, A190: 104.9 µM, 78.9 µM, A204: 8.4 µM, 5.6 µM
Experimental: as §4, §5

[5] = tested on: A549 cells synchronised in M phase; experiment: Gene expression by quantitative real-time RT-PCR in cells synchronised in M phase; format: cell-based; conditions: A549, at 17 hours; treated at the IC50 (figure legend: 39.4µM)
Source text: as §1
(§6) Total RNA was extracted from NSCLC-N6-L16 and A549 cell lines using the Dynabeads® mRNA DirectTM Kit (Ambion by Life Technologies). The isolation protocol relies on base pairing between the polyA residues at the 3' end of most mRNA and the oligo (dT) residues covalently coupled to the surface of the Dynabeads®. The quality and concentration of purified RNA were assessed using UV absorbance at 260/280 nm and samples were run on 1% agarose gel in order to assess their quality. RNA was stored at - 80 °C.
RT was carried out with 1 µg of RNA in 10 µL with 0.125 µg/µL random primers and RNase-free water. This mixture was denatured at 65°C for 10 min then kept on ice. Subsequently, it was completed to a final volume of 25 µL with a mix containing 8 mM of dNTP mix, 1X of M- MLV 5X reaction buffer, 25 units of recombinant RNasin ribonuclease inhibitor (Promega), and 200 units of M-MLV RT (Promega) and RNase-free water. […]

[6] = tested on: NSCLC-N6-L16 cells synchronised in M phase; experiment: as above; format: cell-based, human
Source text: as §1, §6
RT was carried out with 1 µg of RNA in 10 µL with 0.125 µg/µL random primers and RNase-free water. This mixture was denatured at 65°C for 10 min then kept on ice. Subsequently, it was completed to a final volume of 25 µL with a mix containing 8 mM of dNTP mix, 1X of M- MLV 5X reaction buffer, 25 units of recombinant RNasin ribonuclease inhibitor (Promega), and 200 units of M-MLV RT (Promega) and RNase-free water. In order to check whether the samples were contaminated by genomic DNA, the same mix was made with RNA without the reverse transcriptase. Following this step, samples were incubated for 2 h at 37°C. cDNAs were stored at -20°C. After reverse transcription, cDNAs were used as a template for specific qPCR.
Real-time RT-PCR was carried out in a final volume of 25 µL with 1µL 1:20 dilution of diluted cDNA mixture, 10 pmol gene-specific forward and 10 pmol reverse primer in 1X SYBR Green PCR master mix (Eurogentec) with the following protocol: 15 s at 95 °C for denaturation, 30 s at 60°C for annealing and extension on a ABI Prism Sequence Detection System 5700 (Applied Biosystems). The primers were designed using Primer 3 (http://frodo.wi.mit.edu/). All primer sequences were controlled with a dimers finder to reduce the risk of unspecific hybridization of Sybr-green (Operon oligo toolkit: see https://www.operon.com(oligos/toolkit.php).
The relative expression of each gene was normalized to that of human β-actin: forward 5'-[…]-3' (SEQ ID NO: 13), reverse 5'-[…]-3' (SEQ ID NO: 14) (10 mM, Sigma Genosys). Normalization was carried out using the ΔΔCt method. Non-template control sample was used for each PCR to check the genomic DNA contaminations of the cDNA template. Analysis of the results was carried out using GenAmp 5700 SDS (Applied Biosystems) software.
The expression of four genes of interests were studied in the cell line NSCLC-N6-L16: HEF1, p53, C3G and FAK. It was carried out by RT-QPCR on the synchronized cells not treated (dark histograms) or treated (grey histograms) by A240 at the IC50. The study was performed between 10 and 17 hours in order to follow the gene expression with an extraction every hour.

[7] = tested on: A549 cells synchronised in M phase; conditions: after 17 hours of treatment, previous work; cited from earlier work
mutant p53, NEDD9 gene = conditions: Rousseau et al., Sci. Rep. 5, 10556, 2015; cited from earlier work

In the case of `NC1=NC(C23CC4CC(CC(C4)C2)C3)N(Cc2ccc(Cl)cc2)C(N)=N1` (centres unmarked) [A204, 4,6-diamino-1,2-dihydro-1-(4"-chlorobenzyl)-2-(1-tricyclo [3.3.1.1,4]decyl)-1,3,5-triazine], the “time at which the effect of the treatment is beginning” value (synchronized cells) is reported as “around 30 hours”, the “IC50 / amount required compared with A190” value (A549 [1]; A549, relative to A190) is reported as “seven times less” and the IC50 (A549 [1]) is reported as 9.7 ± 0.7 µM. For the same compound, the IC50 (NSCLC-N6-L16 [2]) was 5.01 ± 0.5 µM, the “cell growth (proliferation) versus time” value (A549 [3]) was “follow perfectly that of the control cells” and the “"plateau" of cytostatic type, time of treatment after which it is visible” value (NSCLC-N6-L16 [4]) was over 48 h. For the same compound, the “expression of gene AKT” value [5] was “overexpression”, the “expression of gene PI3K” value [5] was “overexpression” and the “expression of gene P53” value ([6]; 10 to 17 hours, treated vs control) was “clearly shows an influence of the treatment on the expression”. For the same compound, the “time of action compared with A190” value ([6]; NSCLC-N6-L16, same cytostatic effect, relative to A190) was “three hours earlier”, the “expression of gene C3G” value ([6]; at 17 hours (G2 / M phase)) was “collapse” and the “expression of gene HEF1” value ([6]; at around 12 hours, treated at the IC50 (figure legend: 39.4µM) vs control) was “highly overexpressed”. The “expression of gene C3G” value ([6]; between 11 and 13 hours (end of G1 phase)) was “widely overexpressed”, the “expression of gene FAK” value ([6]; between 12 and 16 hours (phase of synthesis)) was “decreased expression” and the “expression of gene HEF1” value ([6]; between 13 and 15 hours) was “collapses”. For the same compound, the “expression of gene C3G” value ([6]; between 13 and 16h) was “goes up gradually” and the “expression of gene HEF1” value ([6]; between 15 and 17 hours (G2 / M phase)) was “relatively close to the level of the control cells”.
With `NC1=NC(C23CC4CC(CC(C4)C2)C3)N(c2ccc(Cl)cc2)C(N)=N1` (centres unmarked) [A190] the IC50 (A549 [1]) was 71 ± 1.2 µM, the IC50 (NSCLC-N6-L16 [2]) was 24.1 ± 2.2 µM and the “cell growth (proliferation) versus time” value (A549 [3]) was “reduced for both cell lines in a dose-dependent manner”. The “cytostatic activity since (concentration)” value (A549 [3]; A549, continuous exposure) was at least 26.3 µM, the “plateau of cytostatic type, time of treatment after which it is visible” value (A549 [3]; A549, A190 at 104.9, 78.9, 52.6, 26 µM) was over 48 h and the “expression of gene AKT” value [7] was “overexpression”. The “expression of gene PI3K” value [7] was “overexpression”, the “cell growth (proliferation) versus time” value (NSCLC-N6-L16 [4]; NSCLC-N6-L16, 72 h kinetics) was “reduced for both cell lines in a dose-dependent manner” and the “cytostatic activity since (concentration)” value (NSCLC-N6-L16 [4]; NSCLC-N6-L16, continuous exposure) was at least 26.3 µM. The “"plateau" of cytostatic type, time of treatment after which it is visible” value (NSCLC-N6-L16 [4]) was over 48 h, the “expression of the NEDD9 gene” value (mutant p53, NEDD9 gene) was “overexpression” and the “mutant p53 activity” value (mutant p53, NEDD9 gene) was “restores mutant p53 activity”.
